Laboratory results as given in patent publication US20260123631A1, “NATURAL PORPHIN SALT AND USE THEREOF AS PLANT GROWTH REGULATOR AND PLANT IMMUNITY INDUCER” (NANJING BOSTEC BIOLOGICAL ENGINEERING CO., LTD, priority 2022, published 2026).

Experiments:
leaf blast in rice = assay: Field control of leaf blast in rice; assay type: in vivo, rice (Nanjing 9108); settings: 3 mg/mu sprayed 3 times (0.1, 0.067, 0.067 ppm)
Protocol: (§1) The experiment was conducted according to experimental specifications in the field efficacy standard of GB/T17980.19-2000. In the experiment, the following two treatments were set: a first treatment: sodium iron chlorin was applied, and a second treatment: a blank control (water) was applied. A test sample was fully dissolved and diluted, and then applied. Based on the characteristics of disease and pest control, an agent was applied once at each of a late tillering stage (Jul. 22, 2021), a jointing-booting stage (Aug. 16, 2021), and a full heading stage (Aug. 30, 2021). […] Water amounts required per mu for the three times were 30 L, 45 L, and 45 L (sample concentrations: 0.1 ppm, 0.067 ppm, and 0.067 ppm), respectively. An area for each treatment was 3 mu. According to a five-point sampling method, 5 sampling points (20 m^2 per sampling point) were set for each treatment. The occurrence of leaf blast in rice was investigated in the field before harvesting.

wheat = assay: Germination of wheat and growth of seedlings; assay type: in vivo, wheat (Huaimai 35); settings: for Root length / Root number / Root weight / Seedling height / Seedling weight: wheat seedlings
Protocol: Method: 3 replicates were set for each treatment. 50 full seeds with a consistent size were selected each time for each sample, disinfected with sodium hypochlorite for 5 min, rinsed with clear water, and placed in a plastic box filled with 100 g of a sand. 25 mL of a prepared sample solution was poured into the plastic box, and the seeds were arranged regularly. The plastic box was covered with a lid, and then incubated in a 25° C. incubator. The germination was determined when a length of a sprout of a wheat seed exceeded a half of a diameter (long axis) of the wheat seed (determination criterion). According to the growth of wheat, the germ exposure of seeds and the number of germinated seeds were recorded every day. On day 6, 10 wheat seedlings were randomly selected, and a root length, a plant height, and a root number were determined. On day 7, a root weight and an aboveground part weight were determined. All index data was produced based on 3 replicates.

Phytophthora capsici = assay: Pot experiment: resistance of pepper to phytophthora blight; assay type: in vivo; settings: 2.0 ppm sprayed on pepper seedlings (Sujiao No. 5), inoculated 3 d later
Protocol: Preparation of Phytophthora capsici zoospores: Fungal discs were collected at an edge of a newly-activated Phytophthora capsici plate. 6 mm fungal discs were picked with a needle and transferred to an empty Petri dish with a diameter of 9 cm, with fungi facing up and 10 fungal discs for each plate. 15 mL of sterilized water was added to the Petri dish, and the Petri dish was placed in a clean bench under light. The water was changed once every 30 min for 3 times in total. The remaining wastewater was removed by a pipette, and then 10 mL of the V8 liquid medium was added. The Petri dish was incubated in a 25° C. incubator for 24 h in the dark to induce the production of a large number of sporangiospores. Then the Petri dish was placed in a 4° C. refrigerator for 30 min and then incubated in a 25° C. incubator for 30 min, such that a large number of zoospores were released. 10 L of a sample was collected, and observed and counted with a hemocytometer under a microscope. The remaining sample was collected for later use.
Pepper seedlings at a 4-6 leaf stage were transplanted, with one plant in each pot. […] 3 replicates were set for each treatment, and 18 pots were adopted for each replicate. After the treatment, the observation was conducted regularly once a day. An incidence rate of pepper was recorded, and a disease index and a control efficiency were counted. […]

rice [1] = assay: Rice yield in the leaf blast field experiment; assay type: in vivo, rice (Nanjing 9108); settings: 3 mg/mu sprayed 3 times
Protocol: as §1
The harvesting was conducted on Nov. 8, 2021. On the eve of harvesting, the yield composition and structure were investigated. Then a yield per mu was measured.

rice [2] = assay: Alleviation of herbicide damage in rice; assay type: in vivo, rice (Jinjing 818); settings: 0.25 ppm
Protocol: Method: A treatment plot of 1.5 mu and a control plot of 1.5 mu were set. The sample was sprayed twice after the herbicide damage occurred in rice sprayed with a herbicide. Clear water was adopted as a blank control. Specific operations were as follows:
On June 20 when weeds had 3 leaves and rice had 3 to 3.5 leaves, the treatment plot and the control plot both were treated with 4% imazamox at 200 mL/mu and 10% pyribenzoxim at 40 mL/mu by a stem and leaf spray method, with 30 kg of water per mu. One week later, a weeding effect was prominent, but rice underwent obvious pesticide damage. 10 d after the herbicide application (June 30), the treatment plot was sprayed with the sample at 7.5 mg/mu by a stem and leaf spray method, with a solution of 30 L per mu. The control plot was sprayed with clear water. At an inflorescence emergence stage of rice (August 25), the spraying was conducted once again by the same method.

sheath blight in rice = assay: Field control of sheath blight in rice; assay type: in vivo, rice (Nanjing 9108); settings: 3.0 mg/mu sprayed 3 times (0.100, 0.067, 0.067 ppm)
Protocol: A test sample was dissolved, diluted, thoroughly stirred, and then applied, with an application area of 3 mu for each treatment. Before harvesting, five-point sampling (20 m^2 per sampling point) was conducted for each treatment to determine the details of sheath blight in rice.

tobacco = assay: Spraying on tobacco to improve a yield; assay type: in vivo, tobacco (Yunyan 87); settings: 45 L per mu
Protocol: Method: Four spraying concentrations were set. For each treatment, four plots were adopted, with each plot of 20 m^2. […] During harvesting, sampling was conducted to count a plant height, a leaf length, a leaf width, and a single-leaf weight. All tobacco leaves of the plots were baked into flue-cured tobacco. […]

[3] = 7.5 mg/mu sprayed twice after imazamox/pyribenzoxim damage

sodium iron chlorin [Example 21]
Average disease index (leaf blast in rice): 20.09%
Average incidence rate (leaf blast in rice): 8.0%
Corrected control effect (leaf blast in rice): 43.93%
Germination rate of wheat (wheat; 0.0025 ppm): 94.0%
Root length (wheat; 0.0025 ppm): 9.30 cm
Root number (wheat; 0.0025 ppm): 5.3
Root weight (wheat; 0.0025 ppm): 0.0953 g
Seedling height (wheat; 0.0025 ppm): 8.88 cm
Seedling weight (wheat; 0.0025 ppm): 0.170 g
Germination rate of wheat (wheat; 0.0250 ppm): 95.3%
Root length (wheat; 0.0250 ppm): 10.17 cm
Root number (wheat; 0.0250 ppm): 5.2
Root weight (wheat; 0.0250 ppm): 0.1027 g
Seedling height (wheat; 0.0250 ppm): 9.13 cm
Seedling weight (wheat; 0.0250 ppm): 0.178 g
Germination rate of wheat (wheat; 0.2500 ppm): 93.3%
Root length (wheat; 0.2500 ppm): 9.64 cm
Root number (wheat; 0.2500 ppm): 4.9
Root weight (wheat; 0.2500 ppm): 0.0867 g
Seedling height (wheat; 0.2500 ppm): 7.95 cm
Seedling weight (wheat; 0.2500 ppm): 0.145 g
Control effect (Phytophthora capsici): 71.89%
Disease index (Phytophthora capsici): 24.36
Ear number per mu (rice [1]): 22.40 10,000
Filled grain number per ear (rice [1]): 117.39
Thousand-grain weight (rice [1]): 26.9 g
Yield (rice [1]): 616.85 kg/mu
Yield increase rate (rice [1]; versus water): 7.1%
Actual yield (rice [2]; [3]): 675 kg/mu
Ear number/mu (rice [2]; [3]): 275945.5
Filled grain number/ear (rice [2]; [3]): 97.64
Grain number/ear (rice [2]; [3]): 104.5
Seed set rate (rice [2]; [3]): 0.9344
Theoretical yield (rice [2]; [3]): 816.8 kg/mu
Thousand-grain weight (rice [2]; [3]): 30.30 g
increase of yield per mu (rice [2]; 7.5 mg/mu sprayed twice, versus clear water): ≥ 22%
Corrected control (sheath blight in rice): 45.16%
Disease index (sheath blight in rice): 21.61%
Diseased plant rate (sheath blight in rice): 10.4%
Leaf length (tobacco; 0.05 ppm sprayed twice): 76.0 cm
Leaf width (tobacco; 0.05 ppm sprayed twice): 28.5 cm
Plant height (tobacco; 0.05 ppm sprayed twice): 114.2 cm
Weight/leaf (tobacco; 0.05 ppm sprayed twice): 8.4 g
Yield (tobacco; 0.05 ppm sprayed twice): 133.75 kg/mu
Yield increase rate (tobacco; 0.05 ppm sprayed twice): 9.4%
Leaf length (tobacco; 0.10 ppm sprayed twice): 77.2 cm
Leaf width (tobacco; 0.10 ppm sprayed twice): 28.9 cm
Plant height (tobacco; 0.10 ppm sprayed twice): 116.7 cm
Weight/leaf (tobacco; 0.10 ppm sprayed twice): 8.7 g
Yield (tobacco; 0.10 ppm sprayed twice): 138.67 kg/mu
Yield increase rate (tobacco; 0.10 ppm sprayed twice): 13.5%
Leaf length (tobacco; 0.20 ppm sprayed twice): 75.6 cm
Leaf width (tobacco; 0.20 ppm sprayed twice): 28.4 cm
Plant height (tobacco; 0.20 ppm sprayed twice): 114.3 cm
Weight/leaf (tobacco; 0.20 ppm sprayed twice): 8.4 g
Yield (tobacco; 0.20 ppm sprayed twice): 133.59 kg/mu
Yield increase rate (tobacco; 0.20 ppm sprayed twice): 9.3%
Leaf length (tobacco; 0.30 ppm sprayed twice): 74.7 cm
Leaf width (tobacco; 0.30 ppm sprayed twice): 28 cm
Plant height (tobacco; 0.30 ppm sprayed twice): 114.5 cm
Weight/leaf (tobacco; 0.30 ppm sprayed twice): 8.3 g
Yield (tobacco; 0.30 ppm sprayed twice): 132.54 kg/mu
Yield increase rate (tobacco; 0.30 ppm sprayed twice): 8.5%
